Key:
PI3Kδ = target: T1, PI3Kδ (Homo sapiens, UniProt O00329); test: In vitro kinase activity (LabChip EZ Reader mobility shift), PI3Kδ; type: biochemical; conditions: kinase subtype PI3Kδ (p110δ/p85a)
T1 construct: purchased Millipore 14-604-K
Method: (§1) Compounds: the compounds prepared in above examples of the present invention, each of which was prepared to a concentration of 10 mM in DMSO and diluted to […], 100 nM, 10 nM, 1 nM, 0.1 nM, 0.01 nM successively.
(§2) Reagents: PI3Kα (p110α(p85a), purchased from Invitrogen, Cat.No. PV4788; PIK3Cδ (p110δ/p85a), purchased from Millipore, Cat.No. 14-604-K; PIK3Cβ (p110β), purchased from Millipore, Cat.No. 14-603-K; PIK3Cγ (pp110γ), purchased from Invitrogen, Cat.No. PR8641C; DMSO, purchased from Sigma; EDTA, purchased from Sigma; 1× kinase buffer (50 mM HEPES, pH 7.5, 0.0015% Brij-35, 10 mM MgCl2, 2 mM DTT), which was prepared before use; termination solution (100 mM HEPES, pH 7.5, 0.015% Brij-35, 0.2% Coating Reagent#3, 50 mM EDTA), which was prepared before use.
(§3) Instruments: LabChip EZ Reader purchased from Caliper, USA.
(§4) 2.1 10 μl solution of each concentration of each compound was placed into 96-well plate and 90 μl of 1× kinase buffer was added. DMSO control group and control group without kinase activity were set up, which all contained 10 μl DMSO and 90 μl of 1× kinase buffer. Each group was mixed well at room temperature for 10 min, and then 5 μl of each group was transferred to a 384-well plate.
(§5) 2.2 Kinases were dissolved in 1× kinase buffer to prepare a 2.5× kinase solution. 10 μl of 2.5× kinase solution was transferred to the 384-well plate containing compounds of different concentrations. 10 μl of 2.5× kinase solution was added to DMSO control group and 10 μl of 1× kinase buffer without kinase was added to control group without kinase activity. The plate was incubated at room temperature for 10 min.
(§6) 2.3 ATP and the polypeptide labeled with FAM were dissolved in 1× kinase buffer to prepare 2.5× substrate solution. Then 10 μl of 2.5× substrate solution was transferred to the 384-well plate and incubated at 28° C. for 1 h.
(§7) 2.4 25 μl of termination solution was added to each well to terminate the reaction.
(§8) 2.5 The plate was placed on the LabChip EZ Reader to read the data of conversion rate and inhibitory rate (1%) was calculated according to formula: I %=(Max−Com)/(Max−Min)×100, wherein Max was the conversion rate of DMSO control group, Min was the conversion rate of control group without kinase activity, Com was the conversion rate of compound treatment group. IC50 was fitted by XLfit processing of the data.

PI3Kα = target: T2, PI3Kα (Homo sapiens, UniProt P42336); test: In vitro kinase activity (LabChip EZ Reader mobility shift), PI3Kα; type: biochemical; conditions: kinase subtype PI3Kα (p110α/p85a)
T2 construct: purchased Invitrogen PV4788
T2 sequence (P42336 whole entry): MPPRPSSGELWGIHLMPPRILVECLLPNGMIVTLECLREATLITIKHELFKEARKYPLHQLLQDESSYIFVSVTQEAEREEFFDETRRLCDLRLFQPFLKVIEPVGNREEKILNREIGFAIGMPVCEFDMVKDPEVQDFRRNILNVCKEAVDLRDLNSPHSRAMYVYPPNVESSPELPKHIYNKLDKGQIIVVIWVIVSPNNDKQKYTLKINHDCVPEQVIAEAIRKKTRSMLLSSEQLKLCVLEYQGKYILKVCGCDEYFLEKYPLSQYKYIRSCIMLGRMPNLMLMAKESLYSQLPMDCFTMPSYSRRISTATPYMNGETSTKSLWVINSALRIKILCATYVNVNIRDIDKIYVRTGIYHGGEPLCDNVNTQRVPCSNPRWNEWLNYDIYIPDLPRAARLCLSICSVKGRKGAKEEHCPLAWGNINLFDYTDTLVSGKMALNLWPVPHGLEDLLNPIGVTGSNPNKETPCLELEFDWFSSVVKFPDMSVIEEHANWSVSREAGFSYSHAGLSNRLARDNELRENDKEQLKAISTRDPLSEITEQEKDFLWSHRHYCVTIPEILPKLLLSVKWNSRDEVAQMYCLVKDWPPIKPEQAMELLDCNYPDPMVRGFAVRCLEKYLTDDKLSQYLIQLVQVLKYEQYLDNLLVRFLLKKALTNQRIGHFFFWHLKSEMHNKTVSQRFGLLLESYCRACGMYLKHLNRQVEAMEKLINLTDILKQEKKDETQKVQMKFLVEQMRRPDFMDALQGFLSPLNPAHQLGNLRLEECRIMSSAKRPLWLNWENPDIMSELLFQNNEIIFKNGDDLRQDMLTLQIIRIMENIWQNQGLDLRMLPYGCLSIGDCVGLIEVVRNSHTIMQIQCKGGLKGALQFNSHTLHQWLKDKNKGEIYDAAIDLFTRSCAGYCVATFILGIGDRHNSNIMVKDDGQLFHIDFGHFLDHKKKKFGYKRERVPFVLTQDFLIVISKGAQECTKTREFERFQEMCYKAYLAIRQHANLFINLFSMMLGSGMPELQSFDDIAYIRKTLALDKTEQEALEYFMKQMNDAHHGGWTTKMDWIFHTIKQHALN
T2 sequence (P27986 whole entry partner): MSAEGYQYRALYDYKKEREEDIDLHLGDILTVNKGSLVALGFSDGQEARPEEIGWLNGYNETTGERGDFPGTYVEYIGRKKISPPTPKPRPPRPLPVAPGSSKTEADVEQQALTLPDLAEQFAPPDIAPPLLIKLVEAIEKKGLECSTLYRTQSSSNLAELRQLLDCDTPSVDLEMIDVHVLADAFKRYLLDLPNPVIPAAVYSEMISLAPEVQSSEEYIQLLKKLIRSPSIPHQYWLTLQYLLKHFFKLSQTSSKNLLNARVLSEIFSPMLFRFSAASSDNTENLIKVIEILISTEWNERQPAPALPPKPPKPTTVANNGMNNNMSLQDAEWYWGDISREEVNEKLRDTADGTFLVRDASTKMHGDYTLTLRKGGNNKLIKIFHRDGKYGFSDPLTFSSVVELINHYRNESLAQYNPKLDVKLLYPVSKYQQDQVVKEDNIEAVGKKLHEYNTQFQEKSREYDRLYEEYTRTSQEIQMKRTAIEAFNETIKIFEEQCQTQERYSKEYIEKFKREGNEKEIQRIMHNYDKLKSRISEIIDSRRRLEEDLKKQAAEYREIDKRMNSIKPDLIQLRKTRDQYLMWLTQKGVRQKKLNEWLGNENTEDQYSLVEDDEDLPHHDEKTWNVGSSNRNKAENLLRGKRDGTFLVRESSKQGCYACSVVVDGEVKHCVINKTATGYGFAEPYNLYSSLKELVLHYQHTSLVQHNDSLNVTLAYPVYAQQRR
Method: as §1, §2, §3, §4, §5, §6, §7, §8

PI3Kβ = target: T3, PI3Kβ (Homo sapiens, UniProt P42338); test: In vitro kinase activity (LabChip EZ Reader mobility shift), PI3Kβ; type: biochemical; conditions: kinase subtype PI3Kβ (p110β)
T3 construct: purchased Millipore 14-603-K
T3 sequence (P42338 whole entry): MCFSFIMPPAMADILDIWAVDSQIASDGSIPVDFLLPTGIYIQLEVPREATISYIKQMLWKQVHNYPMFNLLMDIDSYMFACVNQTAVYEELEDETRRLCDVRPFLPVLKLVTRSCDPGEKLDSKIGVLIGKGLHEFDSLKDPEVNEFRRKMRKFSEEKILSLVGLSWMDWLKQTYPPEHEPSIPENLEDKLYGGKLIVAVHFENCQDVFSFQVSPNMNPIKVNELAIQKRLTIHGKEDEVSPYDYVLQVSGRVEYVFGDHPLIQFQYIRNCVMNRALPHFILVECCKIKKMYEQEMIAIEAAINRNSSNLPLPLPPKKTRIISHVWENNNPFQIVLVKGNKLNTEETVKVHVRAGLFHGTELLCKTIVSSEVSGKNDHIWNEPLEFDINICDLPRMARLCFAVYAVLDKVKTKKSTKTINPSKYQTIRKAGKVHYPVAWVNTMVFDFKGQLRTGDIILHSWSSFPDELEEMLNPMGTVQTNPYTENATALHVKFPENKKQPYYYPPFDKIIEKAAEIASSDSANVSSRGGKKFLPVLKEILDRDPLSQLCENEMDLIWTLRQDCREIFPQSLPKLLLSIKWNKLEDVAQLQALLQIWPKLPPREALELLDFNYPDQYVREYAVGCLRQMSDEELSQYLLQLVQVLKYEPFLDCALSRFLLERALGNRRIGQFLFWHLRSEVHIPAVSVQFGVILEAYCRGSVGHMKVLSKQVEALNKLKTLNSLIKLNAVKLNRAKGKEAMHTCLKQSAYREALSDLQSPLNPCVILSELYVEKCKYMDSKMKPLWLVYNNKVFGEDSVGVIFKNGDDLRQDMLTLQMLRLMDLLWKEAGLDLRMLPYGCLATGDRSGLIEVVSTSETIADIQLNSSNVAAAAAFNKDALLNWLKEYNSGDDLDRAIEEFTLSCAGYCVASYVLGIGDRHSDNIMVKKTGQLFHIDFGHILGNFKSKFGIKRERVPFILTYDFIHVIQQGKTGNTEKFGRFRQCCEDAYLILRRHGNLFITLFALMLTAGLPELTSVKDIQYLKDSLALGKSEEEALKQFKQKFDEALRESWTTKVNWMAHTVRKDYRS
T3 sequence (P27986 whole entry partner): as the sequence (P27986 whole entry partner) above
Method: as §1, §2, §3, §4, §5, §6, §7, §8

PI3Kγ = target: T4, PI3Kγ (Homo sapiens, UniProt P48736); test: In vitro kinase activity (LabChip EZ Reader mobility shift), PI3Kγ; type: biochemical; conditions: kinase subtype PI3Kγ (p110γ)
T4 construct: purchased Invitrogen PR8641C
T4 sequence (P48736 whole entry): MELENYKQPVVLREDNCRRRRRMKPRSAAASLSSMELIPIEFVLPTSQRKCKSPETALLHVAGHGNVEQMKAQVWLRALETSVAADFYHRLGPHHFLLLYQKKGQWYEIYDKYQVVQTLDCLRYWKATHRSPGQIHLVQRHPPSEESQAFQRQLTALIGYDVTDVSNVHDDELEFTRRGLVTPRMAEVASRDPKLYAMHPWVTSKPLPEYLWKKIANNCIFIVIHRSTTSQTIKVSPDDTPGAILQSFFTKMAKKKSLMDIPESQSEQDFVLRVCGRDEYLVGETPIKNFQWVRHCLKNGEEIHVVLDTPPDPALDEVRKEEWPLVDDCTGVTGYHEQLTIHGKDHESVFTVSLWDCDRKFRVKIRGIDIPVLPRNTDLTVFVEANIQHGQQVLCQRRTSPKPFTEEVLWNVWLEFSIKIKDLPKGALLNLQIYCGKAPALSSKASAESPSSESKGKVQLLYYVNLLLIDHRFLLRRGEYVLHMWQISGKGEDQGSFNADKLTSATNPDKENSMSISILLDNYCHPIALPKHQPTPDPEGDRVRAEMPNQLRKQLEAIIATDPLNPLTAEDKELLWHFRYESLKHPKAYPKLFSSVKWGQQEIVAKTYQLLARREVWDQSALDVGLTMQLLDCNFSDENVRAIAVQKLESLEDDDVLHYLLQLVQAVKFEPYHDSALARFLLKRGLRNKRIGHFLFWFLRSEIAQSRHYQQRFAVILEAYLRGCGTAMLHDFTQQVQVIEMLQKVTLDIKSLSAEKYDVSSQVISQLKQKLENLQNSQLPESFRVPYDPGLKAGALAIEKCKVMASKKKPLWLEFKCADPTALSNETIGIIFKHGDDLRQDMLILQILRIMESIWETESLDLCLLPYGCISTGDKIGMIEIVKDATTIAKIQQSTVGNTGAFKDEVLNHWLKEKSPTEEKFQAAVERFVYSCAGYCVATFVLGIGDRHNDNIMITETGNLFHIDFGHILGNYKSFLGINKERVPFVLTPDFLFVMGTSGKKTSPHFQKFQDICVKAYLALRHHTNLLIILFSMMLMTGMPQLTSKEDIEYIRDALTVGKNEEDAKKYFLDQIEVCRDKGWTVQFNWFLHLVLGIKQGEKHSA
Method: as §1, §2, §3, §4, §5, §6, §7, §8

SU-DHL-5 lymphoma cells = test: In vitro cell activity, CellTiter-Glo cell viability, SU-DHL-5; type: cell-based; conditions: Homo sapiens, SU-DHL-5 lymphoma cell line, 72 h
Method: (§9) Compounds: the compounds prepared in above examples of the present invention, each of which was prepared to a concentration of 10 mM in DMSO and diluted 3 times to 20000.00 nM, 6666.67 nM, 2222.22 nM, 740.74 nM, 246.91 nM, 27.43 nM, 9.14 nM, 3.05 nM successively.
(§10) The lymphoma cell lines SU-DHL-5 and SU-DHL-6 were purchased from the American Type Culture Collection (ATCC).
(§11) Reagents: PRMI-1640, purchased from Invitrogen (USA); FBS, purchased from Invitrogen (USA); EDTA, purchased from Sigma (USA); CellTiter-Glo® Luminescent Cell Viability Assay Kit, purchased from Progema (USA); Backseal membrane, purchased from Perkin Elmer (USA).
(§12) The cells were thawed in a 37° C. water bath and then transferred to 15 ml preheated medium. The cells were centrifuged at 1000 rpm for 5 min and the medium was discarded. The cells were resuspended in 15 ml fresh medium and transferred to T75 culture flask and incubated in an incubator at 37° C. with 5% CO2. The medium was replaced with fresh medium 24 h later.
(§13) The resuscitated cells above were transferred to a 50 ml sterile centrifuge tube and centrifuged at 1000 rpm for 5 min. The medium was discarded, and the cells were dispersed uniformly and counted. The appropriate cell concentration was adjusted in 15 ml fresh medium and added to T75 culture flask. The flask was incubated in an incubator at 37° C. with 5% CO2.
When the cells in the T75 culture flask grew to 1×10^5˜1×10^6 cells/ml, the cells were resuspended with fresh medium (RPMI-1640+20% FBS) and counted. The resuspended cells were adjusted to the following eight concentrations: 1×10^4 cells/ml, 2×10^4 cells/ml, 3×10^4 cells/ml, 5×10^4 cells/ml, 8×10^4 cells/ml, 1×10^5 cells/ml, 1.5×10^5 cells/ml, and 2×10^5 cells/ml. The above cell suspensions were added to 96-well cell culture plate, 100 μl each well (1×10^3 cells/ml, 2×10^3 cells/ml, 3×10^3 cells/ml, 5×10^3 cells/ml, 8×10^3 cells/ml, 1×10^4 cells/ml, 1.5×10^4 cells/ml, and 2×10^4 cells/ml, respectively). Each concentration was done double in three plates. 72 h later, 100 μl CellTiter-Glo® Luminescent Cell Viability Assay buffer was added to test wells and shaken gently. 10 min later, the Assay plate was attached at the bottom by Backseal membrane and placed on Envison to detect the fluorescence reading. Cell survive (%) was calculated according to the formula: cell survive (%)=(Com−Min)/(Max−Min), wherein Max was the reading of solvent control group, Min was the reading of control group without cells, and Com was the reading of compound treatment group.

SU-DHL-6 lymphoma cells = test: In vitro cell activity, CellTiter-Glo cell viability, SU-DHL-6; type: cell-based; conditions: Homo sapiens, SU-DHL-6 lymphoma cell line, 72 h
Method: as §9, §10, §11, §12, §13
When the cells in the T75 culture flask grew to 1×10^5˜1×10^6 cells/ml, the cells were resuspended with fresh medium (RPMI-1640+20% FBS) and counted. […] 10 min later, the Assay plate was attached at the bottom by Backseal membrane and placed on Envison to detect the fluorescence reading. Cell survive (%) was calculated according to the formula: cell survive (%)=(Com−Min)/(Max−Min), wherein Max was the reading of solvent control group, Min was the reading of control group without cells, and Com was the reading of compound treatment group.

T1 sequence (O00329 whole entry): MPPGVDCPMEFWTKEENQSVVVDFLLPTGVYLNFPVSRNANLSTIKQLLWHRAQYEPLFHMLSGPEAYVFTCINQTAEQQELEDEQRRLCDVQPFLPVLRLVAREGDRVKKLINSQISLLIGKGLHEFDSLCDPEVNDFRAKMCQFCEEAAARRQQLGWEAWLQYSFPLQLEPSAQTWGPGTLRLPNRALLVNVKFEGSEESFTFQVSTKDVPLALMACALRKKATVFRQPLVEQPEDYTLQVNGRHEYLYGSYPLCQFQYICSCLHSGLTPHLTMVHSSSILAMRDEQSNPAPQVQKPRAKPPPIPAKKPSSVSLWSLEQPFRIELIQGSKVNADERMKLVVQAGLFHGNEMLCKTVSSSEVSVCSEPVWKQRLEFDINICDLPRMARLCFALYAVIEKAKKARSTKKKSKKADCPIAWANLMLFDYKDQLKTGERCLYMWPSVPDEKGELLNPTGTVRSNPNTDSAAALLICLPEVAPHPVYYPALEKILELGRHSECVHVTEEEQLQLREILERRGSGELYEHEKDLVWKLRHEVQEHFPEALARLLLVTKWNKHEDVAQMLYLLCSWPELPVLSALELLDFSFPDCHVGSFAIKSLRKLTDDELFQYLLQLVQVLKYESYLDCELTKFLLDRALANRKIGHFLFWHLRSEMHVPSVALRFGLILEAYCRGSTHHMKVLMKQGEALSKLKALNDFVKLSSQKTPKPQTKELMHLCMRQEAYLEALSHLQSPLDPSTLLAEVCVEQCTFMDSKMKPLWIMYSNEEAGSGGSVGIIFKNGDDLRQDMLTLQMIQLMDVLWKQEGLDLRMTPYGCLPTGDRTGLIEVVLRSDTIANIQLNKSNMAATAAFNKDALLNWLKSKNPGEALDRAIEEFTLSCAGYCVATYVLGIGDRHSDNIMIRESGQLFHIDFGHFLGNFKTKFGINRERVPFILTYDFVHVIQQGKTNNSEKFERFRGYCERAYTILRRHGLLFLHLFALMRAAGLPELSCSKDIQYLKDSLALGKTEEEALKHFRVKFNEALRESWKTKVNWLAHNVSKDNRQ
T1 sequence (P27986 whole entry partner): as the sequence (P27986 whole entry partner) above

CC(Nc1nc(N)nc(N)c1C#N)c1c(-c2ccccc2)oc2ccccc2c1=O (stereo not drawn) [Example 4, 2,4-Diamino-5-cyano-6-(1-(4-oxo-2-phenyl-4H-chromen-3-yl)ethylamino) pyrimidine]
IC50 (PI3Kδ): 9.2 nM
IC50 (PI3Kα): > 1000 nM
IC50 (PI3Kβ): 546 nM
IC50 (PI3Kγ): 83 nM
IC50 (SU-DHL-5 lymphoma cells): 1.41 µM
IC50 (SU-DHL-6 lymphoma cells): 0.014 µM

CC(Nc1ncnc(N)c1C#N)c1c(-c2ccccc2)[nH]c2ccccc2c1=O (stereo not drawn) [Example 10, 4-Amino-5-cyano-6-((1-(4-oxo-2-phenyl-1,4-dihydroquinolin-3-yl)ethyl)amino) pyrimidine]
IC50 (PI3Kδ): 4.4 nM
IC50 (PI3Kα): 1070 nM
IC50 (PI3Kβ): 569 nM
IC50 (PI3Kγ): 441 nM
IC50 (SU-DHL-5 lymphoma cells): 0.81 µM
IC50 (SU-DHL-6 lymphoma cells): 0.04 µM

N#Cc1c(N)ncnc1NCc1c(-c2ccccc2)[nH]c2c(Cl)cccc2c1=O [Example 14, 4-Amino-5-cyano-6-(((8-chloro-4-oxo-2-phenyl-1,4-dihydroquinolin-3-yl)methyl)amino)pyrimidine]
IC50 (PI3Kδ): 3.2 nM
IC50 (PI3Kα): > 1000 nM
IC50 (PI3Kβ): 546 nM
IC50 (PI3Kγ): 905 nM
IC50 (SU-DHL-5 lymphoma cells): 4.63 µM
IC50 (SU-DHL-6 lymphoma cells): 0.16 µM

Source: patent publication US10077258B2, “Substituted pyrimidine compounds as phosphatidylinositol 3-kinase delta inhibitor and use thereof” (NANJING SANHOME PHARMACEUTICAL CO., LTD., priority 2015, dated 2018)
